{
  "source": "paper PMC8008885",
  "about": "(Journal of Enzyme Inhibition and Medicinal Chemistry, 2021)",
  "test_system": "H3K9me3 occupancy in promoter regions",
  "assay": "H3K9me3-ChIP sequencing of striatal tissue of YAC128 mice",
  "assay_type": "in vivo, mouse",
  "details": "for Fold(YACEi/YAC) H3K9me3 ChIP occupancy: APQ-treated YAC vs YAC mice striatum",
  "protocol": "ChIP for H3K9me3 binding to DNA was performed using a CHIP assay kit (Santa Cruz, Dallas, TX) as described previously[21]^,[28]. Striatal tissues from WT, vehicle treated YAC128, and APQ-treated YAC128 mice were crossed-linked with 1% formaldehyde for 20 min at room temperature. Lysates were sonicated for 30 s six times using a Bioruptor (Diagenode Inc., Denville, NJ). After centrifugation, the supernatant was diluted in CHIP dilution buffer and incubated overnight at 4 °C with anti-H3K9me3 antibody. Immune complexes were recovered by the addition of 60 µl of salmon sperm DNA/protein A agarose-50% slurry and incubation at 4 °C for 2 h with rotation. Beads were pelleted and washed with low and high salt buffer followed by LiCl buffer (x3). Immune complexes were eluted by incubation with 500 µl of fresh elution buffer (1% SDS, 0.1 M NaHCO3) and 20 µl of 5 M NaCl. DNA was cleaned by the addition of 500 mM EDTA, 1 M Tris, and proteinase K at 66 °C for 4 h. The DNA solution was extracted with a phenol/chloroform/isoamyl alcohol mixture to remove protein contaminants, followed by precipitation with 100% ethanol. After precipitation, the pellet was washed with 70% ethanol and dissolved in 20 µl DW.\nThe Model-based Analysis of ChIP-Seq algorithm (MACS; v. 1.4.2) was used to identify regions of H3K9me3 enrichment with the default parameters. The peaks that pass a Poisson p values threshold of 0.1 were used for further analyses[28]^,[42]. In order to obtain reliable regions of enrichment, the regions detected in more than two samples were selected and aligned to define the consensus regions using DiffBind R package (v. 2.4.8)[43]. The reads in the consensus regions were counted and DESeq2 was applied to identify DMRs[44]. The DMRs were defined as p values of ≤.05 and only DMRs in promoter region (≤3 K from transcription start site) were selected.\nAmong the read peaks, a total of H3K9me3-enriched 71735 sites were commonly detected using MACS in WT, vehicle-treated YAC128, and APQ-treated YAC128 mice (using DiffBind R package). The reads were re-counted in the 71,735 sites (using DESeq2) and the H3K9me3-enriched sites in promoter region (≤3 K), with p values ≤.01 were selected. Then the H3K9me3-enriched sites with 1.5-fold higher in vehicle-treated YAC128 compared to WT and 1.5-fold lower in vehicle-treated YAC128 compared to APQ-treated YAC128 were finally selected.",
  "data": [
    {"smiles": "C=CCOc1cccc2nc(N3CCCC3)ccc12", "note": "[APQ, 5-allyloxy-2-(pyrrolidin-1-yl)quinoline]", "values": [
      {"measurement": "Fold(YACEi/YAC)", "setting": "H3K9me3 ChIP peak chrX_13041660_13042117, 5730405O15Rik, Promoter (<=1kb)", "result": -3.61},
      {"measurement": "Fold(YACEi/YAC)", "setting": "H3K9me3 ChIP peak chrX_20364227_20364518, Rp2, Promoter (<=1kb)", "result": -2.41},
      {"measurement": "Fold(YACEi/YAC)", "setting": "H3K9me3 ChIP peak chrX_20656130_20656390, Uba1, Promoter (1-2kb)", "result": -3.37},
      {"measurement": "Fold(YACEi/YAC)", "setting": "H3K9me3 ChIP peak chrX_20953229_20953500, Elk1, Promoter (2-3kb)", "result": -2.86},
      {"measurement": "Fold(YACEi/YAC)", "setting": "H3K9me3 ChIP peak chrX_21482622_21482887, Agtr2, Promoter (1-2kb)", "result": -3.76},
      {"measurement": "Fold(YACEi/YAC)", "setting": "H3K9me3 ChIP peak chrX_51205773_51206072, Mbnl3, Promoter (<=1kb)", "result": -4.38},
      {"measurement": "Fold(YACEi/YAC)", "setting": "H3K9me3 ChIP peak chrX_52575414_52575585, A630012P03Rik, Promoter (<=1kb)", "result": -2.24},
      {"measurement": "Fold(YACEi/YAC)", "setting": "H3K9me3 ChIP peak chrX_53059727_53060393, C430049B03Rik, Promoter (2-3kb)", "result": -2.78},
      {"measurement": "Fold(YACEi/YAC)", "setting": "H3K9me3 ChIP peak chrX_55223440_55223928, Slxl1, Promoter (2-3kb)", "result": -3.59},
      {"measurement": "Fold(YACEi/YAC)", "setting": "H3K9me3 ChIP peak chrX_56214992_56215323, Gm773, Promoter (2-3kb)", "result": -3.3},
      {"measurement": "Fold(YACEi/YAC)", "setting": "H3K9me3 ChIP peak chrX_56345445_56345878, Zfp449, Promoter (<=1kb)", "result": -3.19},
      {"measurement": "Fold(YACEi/YAC)", "setting": "H3K9me3 ChIP peak chrX_56823574_56823879, Map7d3, Promoter (1-2kb)", "result": -4.1},
      {"measurement": "Fold(YACEi/YAC)", "setting": "H3K9me3 ChIP peak chrX_57211052_57211422, Cd40lg, Promoter (<=1kb)", "result": -3.71},
      {"measurement": "Fold(YACEi/YAC)", "setting": "H3K9me3 ChIP peak chrX_59587905_59588513, Fgf13, Promoter (2-3kb)", "result": -4.9},
      {"measurement": "Fold(YACEi/YAC)", "setting": "H3K9me3 ChIP peak chrX_62280858_62281466, 4933402E13Rik, Promoter (2-3kb)", "result": -2.07},
      {"measurement": "Fold(YACEi/YAC)", "setting": "H3K9me3 ChIP peak chrX_66814240_66814775, Mir470, Promoter (<=1kb)", "result": -2.86},
      {"measurement": "Fold(YACEi/YAC)", "setting": "H3K9me3 ChIP peak chrX_68010275_68010563, Mir509, Promoter (<=1kb)", "result": -3.86},
      {"measurement": "Fold(YACEi/YAC)", "setting": "H3K9me3 ChIP peak chrX_72985743_72986276, Zfp185, Promoter (1-2kb)", "result": -2.91},
      {"measurement": "Fold(YACEi/YAC)", "setting": "H3K9me3 ChIP peak chrX_74085947_74086310, Mecp2, Promoter (<=1kb)", "result": -3.17},
      {"measurement": "Fold(YACEi/YAC)", "setting": "H3K9me3 ChIP peak chrX_74254068_74254967, Emd, Promoter (<=1kb)", "result": -2.9},
      {"measurement": "Fold(YACEi/YAC)", "setting": "H3K9me3 ChIP peak chrX_100570155_100570557, Awat1, Promoter (1-2kb)", "result": -2.24},
      {"measurement": "Fold(YACEi/YAC)", "setting": "H3K9me3 ChIP peak chrX_100595739_100596091, P2ry4, Promoter (<=1kb)", "result": -2.74},
      {"measurement": "Fold(YACEi/YAC)", "setting": "H3K9me3 ChIP peak chrX_103413658_103414114, Tsx, Promoter (<=1kb)", "result": -2.74},
      {"measurement": "Fold(YACEi/YAC)", "setting": "H3K9me3 ChIP peak chrX_112599521_112600132, Zfp711, Promoter (<=1kb)", "result": -3.8},
      {"measurement": "Fold(YACEi/YAC)", "setting": "H3K9me3 ChIP peak chrX_113186036_113186428, Chm, Promoter (<=1kb)", "result": -3.29},
      {"measurement": "Fold(YACEi/YAC)", "setting": "H3K9me3 ChIP peak chrX_120315318_120315582, H2afb3, Promoter (2-3kb)", "result": -3.46},
      {"measurement": "Fold(YACEi/YAC)", "setting": "H3K9me3 ChIP peak chrX_120316028_120316808, H2afb3, Promoter (2-3kb)", "result": -3.74},
      {"measurement": "Fold(YACEi/YAC)", "setting": "H3K9me3 ChIP peak chrX_123101642_123102142, Cldn34c1, Promoter (1-2kb)", "result": -3.6},
      {"measurement": "Fold(YACEi/YAC)", "setting": "H3K9me3 ChIP peak chrX_134057860_134058275, Cstf2, Promoter (<=1kb)", "result": -2.34},
      {"measurement": "Fold(YACEi/YAC)", "setting": "H3K9me3 ChIP peak chrX_134162152_134162880, Xkrx, Promoter (<=1kb)", "result": -2.18},
      {"measurement": "Fold(YACEi/YAC)", "setting": "H3K9me3 ChIP peak chrX_134757222_134757422, Mir7093, Promoter (<=1kb)", "result": -2.8},
      {"measurement": "Fold(YACEi/YAC)", "setting": "H3K9me3 ChIP peak chrX_142294260_142294634, Gm5643, Promoter (2-3kb)", "result": -2.73},
      {"measurement": "Fold(YACEi/YAC)", "setting": "H3K9me3 ChIP peak chrX_142390366_142390928, Acsl4, Promoter (<=1kb)", "result": -2.3},
      {"measurement": "Fold(YACEi/YAC)", "setting": "H3K9me3 ChIP peak chrX_150550381_150550648, Mir3620, Promoter (2-3kb)", "result": -2.24},
      {"measurement": "Fold(YACEi/YAC)", "setting": "H3K9me3 ChIP peak chrX_152231158_152231359, Kdm5c, Promoter (1-2kb)", "result": -3.16},
      {"measurement": "Fold(YACEi/YAC)", "setting": "H3K9me3 ChIP peak chrX_152560343_152560717, Cldn34a, Promoter (2-3kb)", "result": -4.14},
      {"measurement": "Fold(YACEi/YAC)", "setting": "H3K9me3 ChIP peak chrX_152562252_152562894, Cldn34a, Promoter (<=1kb)", "result": -2.56},
      {"measurement": "Fold(YACEi/YAC)", "setting": "H3K9me3 ChIP peak chrX_153139912_153140739, Rragb, Promoter (<=1kb)", "result": -2.81},
      {"measurement": "Fold(YACEi/YAC)", "setting": "H3K9me3 ChIP peak chrX_158043367_158043944, Cnksr2, Promoter (<=1kb)", "result": -2.16},
      {"measurement": "Fold(YACEi/YAC)", "setting": "H3K9me3 ChIP peak chrX_159623974_159624438, Sh3kbp1, Promoter (2-3kb)", "result": -3.85},
      {"measurement": "Fold(YACEi/YAC)", "setting": "H3K9me3 ChIP peak chrX_159987543_159987820, Map3k15, Promoter (<=1kb)", "result": -3.61},
      {"measurement": "Fold(YACEi/YAC)", "setting": "H3K9me3 ChIP peak chrX_161115587_161115938, Scml2, Promoter (1-2kb)", "result": -2.64},
      {"measurement": "Fold(YACEi/YAC)", "setting": "H3K9me3 ChIP peak chrX_162760032_162760397, Rbbp7, Promoter (<=1kb)", "result": -3.13},
      {"measurement": "Fold(YACEi/YAC)", "setting": "H3K9me3 ChIP peak chrX_166236123_166236395, Gpm6b, Promoter (2-3kb)", "result": -4.18},
      {"measurement": "Fold(YACEi/YAC)", "setting": "H3K9me3 ChIP peak chrX_166439947_166441101, Ofd1, Promoter (<=1kb)", "result": -2.41},
      {"measurement": "Fold(YACEi/YAC)", "setting": "H3K9me3 ChIP peak chrX_166482184_166482633, Rab9, Promoter (2-3kb)", "result": -2.11},
      {"measurement": "Fold(YACEi/YAC)", "setting": "H3K9me3 ChIP peak chrX_167266371_167266766, Tlr8, Promoter (2-3kb)", "result": -3.38},
      {"measurement": "Fold(YACEi/YAC)", "setting": "H3K9me3 ChIP peak chrX_169321353_169321792, Hccs, Promoter (<=1kb)", "result": -2.43},
      {"measurement": "Fold(YACEi/YAC) H3K9me3 ChIP occupancy", "setting": "Hsf3, Promoter (<=1kb), chrX_96456335_96456839", "result": -2.88},
      {"measurement": "Fold(YACEi/YAC) H3K9me3 ChIP occupancy", "setting": "Mageb18, Promoter (1-2kb), chrX_92601496_92601857", "result": -2.64},
      {"measurement": "Fold(YACEi/YAC) H3K9me3 ChIP occupancy", "setting": "Prkx, Promoter (2-3kb), chrX_77798133_77798638", "result": -2.48},
      {"measurement": "Fold(YACEi/YAC) H3K9me3 ChIP occupancy", "setting": "Rbm3, Promoter (1-2kb), chrX_8147480_8147724", "result": -2.71},
      {"measurement": "Fold(YACEi/YAC) H3K9me3 ChIP occupancy", "setting": "Ssxb3, Promoter (2-3kb), chrX_8592171_8592736", "result": -2.75},
      {"measurement": "Fold(YACEi/YAC) H3K9me3 ChIP occupancy", "setting": "Suv39h1, Promoter (1-2kb), chrX_8076427_8076637", "result": -2.8},
      {"measurement": "Fold(YACEi/YAC) H3K9me3 ChIP occupancy", "setting": "Wdr45, Promoter (1-2kb), chrX_7720185_7720585", "result": -3.17}
    ]}
  ]
}
